Experimental data taken from US10577378B2, “EIF4A-inhibiting compounds and methods related thereto” (eFFECTOR Therapeutics, Inc., priority 2015, dated 2020).

Each compound was assayed on MDA-MB-231 human breast cancer cells (assay: Cell proliferation assay (CellTiter-Glo, 72 hours treatment)). Conditions: Homo sapiens; MDA-MB-231 cells, 72 hours at 37° C., CellTiter-Glo; read-out: MDA-MB-231 cell proliferation assay (IC50).
Format: cell-based
Summary of the method: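 IC50 categories: under 100 nM +++, 100–1000 nM ++, above 1000 nM +, derived by sigmoidal curve fitting of CellTiter-Glo luminescence. Cells plated at 2,500 per well, dosed the following day and exposed 72 h at 37 °C versus DMSO control.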

Compound | IC50 [nM]
COc1cncc2c1[C@]1(O)[C@H](O)[C@H](CN(C)Cc3ccccc3)[C@@H](c3ccccc3)[C@]1(c1ccc(C#N)cc1)O2 (racemic) [76F, Rac-4-((4bS,5R,6S,7S,7aR)-6-((benzyl(methyl)amino)methyl)-4b,5-dihydroxy-4-methoxy-7-phenyl-4b,5,6,7-tetrahydro-7aH-cyclopenta[4,5]furo[2,3-c]pyridin-7a-yl)benzonitrile] | < 100
COc1cncc2c1[C@]1(O)[C@H](O)[C@H](CNCc3ccccc3)[C@@H](c3ccccc3)[C@]1(c1ccc(C#N)cc1)O2 (racemic) [77F, Rac-4-((4bS,5R,6S,7S,7aR)-6-((benzylamino)methyl)-4b,5-dihydroxy-4-methoxy-7-phenyl-4b,5,6,7-tetrahydro-7aH-cyclopenta[4,5]furo[2,3-c]pyridin-7a-yl)benzonitrile] | < 100
COc1cncc2c1C1(O)[C@H](O)[C@H](CNCc3cccnc3)[C@@H](c3ccccc3)[C@]1(c1ccc(C#N)cc1)O2 (mixture of isomers) [78F, Rac-4-((5R,6S,7S,7aR)-4b,5-dihydroxy-4-methoxy-7-phenyl-6-(((pyridin-3-ylmethyl)amino)methyl)-4b,5,6,7-tetrahydro-7aH-cyclopenta[4,5]furo[2,3-c]pyridin-7a-yl)benzonitrile] | 100 to 1000
COc1cncc2c1[C@]1(O)[C@H](O)[C@H](CNCCO)[C@@H](c3ccccc3)[C@]1(c1ccc(C#N)cc1)O2 (racemic) [79F, Rac-4-((4bS,5R,6S,7S,7aR)-4b,5-dihydroxy-6-(((2-hydroxyethyl)amino)methyl)-4-methoxy-7-phenyl-5,6,7,7a-tetrahydro-4bH-cyclopenta[4,5]furo[2,3-c]pyridin-7a-yl)benzonitrile] | > 1000
CC(C)n1cc2c(n1)[C@]1(O)[C@H](O)[C@H](C(=O)N(C)C)[C@@H](c3ccccc3)[C@]1(c1ccc(C#N)cc1)O2 (racemic) [80F, rac-(4aR,5S,6R,7R,7aS)-4a-(4-cyanophenyl)-7,7a-dihydroxy-2-isopropyl-N,N-dimethyl-5-phenyl-2,4a,5,6,7,7a-hexahydrocyclopenta[4,5]furo[3,2-c]pyrazole-6-carboxamide] | > 1000
CN(C)C(=O)[C@H]1[C@@H](O)[C@@]2(O)c3nn(C)c(C#N)c3O[C@@]2(c2ccc(C#N)cc2)[C@@H]1c1ccccc1 (racemic) [82F, Rac-(4aR,5S,6R,7R,7aS)-3-cyano-4a-(4-cyanophenyl)-7,7a-dihydroxy-N,N,2-trimethyl-5-phenyl-2,4a,5,6,7,7a-hexahydrocyclopenta[4,5]furo[3,2-c]pyrazole-6-carboxamide] | > 1000
CS(=O)(=O)[C@H]1[C@@H](O)[C@@]2(O)c3ncc(Cl)cc3O[C@@]2(c2ccc(Br)cc2)[C@@H]1c1ccccc1 (racemic) [84F, Rac-(5aR,6S,7R,8S,8aS)-5a-(4-bromophenyl)-3-chloro-7-(methylsulfonyl)-6-phenyl-5a,6,7,8-tetrahydro-8aH-cyclopenta[4,5]furo[3,2-b]pyridine-8,8a-diol] | > 1000
CS(=O)(=O)[C@H]1[C@@H](O)[C@@]2(O)c3ncc(Cl)cc3O[C@@]2(c2ccc(C#N)cc2)[C@@H]1c1ccccc1 (racemic) [85F, Rac-4-((5aR,6S,7R,8S,8aS)-3-chloro-8,8a-dihydroxy-7-(methylsulfonyl)-6-phenyl-6,7,8,8a-tetrahydro-5aH-cyclopenta[4,5]furo[3,2-b]pyridin-5a-yl)benzonitrile] | > 1000
COc1cncc2c1[C@]1(O)[C@H](O)[C@H](C(=O)N3CCOCC3)[C@@H](c3ccccc3)[C@]1(c1ccc(Br)cc1)O2 (racemic) [87F, Rac-((4bS,5R,6R,7S,7aR)-7a-(4-bromophenyl)-4b,5-dihydroxy-4-methoxy-7-phenyl-4b,6,7,7a-tetrahydro-5H-cyclopenta[4,5]furo[2,3-c]pyridin-6-yl)(morpholino)methanone] | < 100
COc1cncc2c1[C@]1(O)[C@H](O)[C@H](C(=O)N(C)CC(F)(F)F)[C@@H](c3ccccc3)[C@]1(c1ccc(Br)cc1)O2 (racemic) [88F, Rac-(4bS,5R,6R,7S,7aR)-7a-(4-bromophenyl)-4b,5-dihydroxy-4-methoxy-N-methyl-7-phenyl-N-(2,2,2-trifluoroethyl)-4b,6,7,7a-tetrahydro-5H-cyclopenta[4,5]furo[2,3-c]pyridine-6-carboxamide] | < 100
COc1cncc2c1[C@]1(O)[C@H](O)[C@H](C(=O)NC3CC3)[C@@H](c3ccccc3)[C@]1(c1ccc(Br)cc1)O2 (racemic) [89F, Rac-(4bS,5R,6R,7S,7aR)-7a-(4-bromophenyl)-N-cyclopropyl-4b,5-dihydroxy-4-methoxy-7-phenyl-4b,6,7,7a-tetrahydro-5H-cyclopenta[4,5]furo[2,3-c]pyridine-6-carboxamide] | < 100
COc1cncc2c1[C@]1(O)[C@H](O)[C@H](C(=O)NCC(F)(F)F)[C@@H](c3ccccc3)[C@]1(c1ccc(Br)cc1)O2 (racemic) [90F, Rac-(4bS,5R,6R,7S,7aR)-7a-(4-bromophenyl)-4b,5-dihydroxy-4-methoxy-7-phenyl-N-(2,2,2-trifluoroethyl)-4b,6,7,7a-tetrahydro-5H-cyclopenta[4,5]furo[2,3-c]pyridine-6-carboxamide] | < 100
O[C@@H]1C(F)(F)[C@@H](c2ccccc2)[C@]2(c3ccc(Br)cc3)Oc3cc(Cl)cnc3[C@]12O (racemic) [91F, Rac-(5aR,6S,8S,8aS)-5a-(4-bromophenyl)-3-chloro-7,7-difluoro-6-phenyl-5a,6,7,8-tetrahydro-8aH-cyclopenta[4,5]furo[3,2-b]pyridine-8,8a-diol] | > 1000
O[C@@H]1C2(CC2)[C@@H](c2ccccc2)[C@]2(c3ccc(Br)cc3)Oc3cc(Cl)cnc3[C@]12O (racemic) [92F, Rac-(5aR,6R,8R,8aS)-5a-(4-bromophenyl)-3-chloro-6-phenyl-5a,6-dihydrospiro[cyclopenta[4,5]furo[3,2-b]pyridine-7,1′-cyclopropane]-8,8a(8H)-diol] | > 1000
O=S(=O)(Cc1ccccc1)[C@H]1[C@@H](O)[C@@]2(O)c3ncc(Cl)cc3O[C@@]2(c2ccc(Br)cc2)[C@@H]1c1ccccc1 (racemic) [93F, Rac-(5aR,6S,7R,8S,8aS)-7-(benzylsulfonyl)-5a-(4-bromophenyl)-3-chloro-6-phenyl-5a,6,7,8-tetrahydro-8aH-cyclopenta[4,5]furo[3,2-b]pyridine-8,8a-diol] | > 1000
N#Cc1ccc([C@@]23Oc4cc(Cl)cnc4[C@]2(O)[C@H](O)[C@H](S(=O)(=O)Cc2ccccc2)[C@H]3c2ccccc2)cc1 (racemic) [94F, Rac-4-((5aR,6S,7R,8S,8aS)-7-(benzylsulfonyl)-3-chloro-8,8a-dihydroxy-6-phenyl-6,7,8,8a-tetrahydro-5aH-cyclopenta[4,5]furo[3,2-b]pyridin-5a-yl)benzonitrile] | > 1000
CN(C)C(=O)[C@H]1[C@@H](O)[C@@]2(O)c3c(C#N)cncc3O[C@@]2(c2ccc(C#N)cc2)[C@@H]1c1ccccc1 (racemic) [96F, Rac-(4bS,5R,6R,7S,7aR)-4-cyano-7a-(4-cyanophenyl)-4b,5-dihydroxy-N,N-dimethyl-7-phenyl-4b,6,7,7a-tetrahydro-5H-cyclopenta[4,5]furo[2,3-c]pyridine-6-carboxamide] | > 1000
CN(C)C(=O)[C@H]1[C@@H](O)[C@@]2(O)c3c(Cl)cncc3O[C@@]2(c2ccc(Br)cc2)[C@@H]1c1ccccc1 (racemic) [97F, Rac-(4bS,5R,6R,7S,7aR)-7a-(4-bromophenyl)-4-chloro-4b,5-dihydroxy-N,N-dimethyl-7-phenyl-4b,6,7,7a-tetrahydro-5H-cyclopenta[4,5]furo[2,3-c]pyridine-6-carboxamide] | 100 to 1000
COc1ccc(Cn2cc3c(n2)[C@]2(O)[C@H](O)[C@H](C(=O)N(C)C)[C@@H](c4ccccc4)[C@]2(c2ccc(C#N)cc2)O3)cc1 (racemic) [99F, Rac-(4aR,5S,6R,7R,7aS)-4a-(4-cyanophenyl)-7,7a-dihydroxy-2-(4-methoxybenzyl)-N,N-dimethyl-5-phenyl-2,4a,5,6,7,7a-hexahydrocyclopenta[4,5]furo[3,2-c]pyrazole-6-carboxamide] | > 1000
CN(C)C(=O)[C@H]1[C@@H](O)[C@@]2(O)c3n[nH]cc3O[C@@]2(c2ccc(C#N)cc2)[C@@H]1c1ccccc1 (racemic) [100F, rac-(4aR,5S,6R,7R,7aS)-4a-(4-cyanophenyl)-7,7a-dihydroxy-N,N-dimethyl-5-phenyl-2,4a,5,6,7,7a-hexahydrocyclopenta[4,5]furo[3,2-c]pyrazole-6-carboxamide] | > 1000
COc1cncc2c1[C@]1(O)[C@H](O)[C@H](S(C)(=O)=O)[C@@H](c3ccccc3)[C@]1(c1ccc(Br)cc1)O2 (racemic) [101F, rac-(4bS,5S,6R,7S,7aR)-7a-(4-bromophenyl)-4-methoxy-6-(methylsulfonyl)-7-phenyl-5,6,7,7a-tetrahydro-4bH-cyclopenta[4,5]furo[2,3-c]pyridine-4b,5-diol] | 100 to 1000
COc1cncc2c1[C@]1(O)[C@H](O)[C@H](C(=O)N(C)CC(F)F)[C@@H](c3ccccc3)[C@]1(c1ccc(Br)cc1)O2 (racemic) [111F, Rac-(4bS,5R,6R,7S,7aR)-7a-(4-bromophenyl)-N-(2,2-difluoroethyl)-4b,5-dihydroxy-4-methoxy-N-methyl-7-phenyl-4b,6,7,7a-tetrahydro-5H-cyclopenta[4,5]furo[2,3-c]pyridine-6-carboxamide] | < 100
COc1cncc2c1[C@]1(O)[C@H](O)[C@H](C(=O)N3[C@@H]4CCC[C@H]3CC4)[C@@H](c3ccccc3)[C@]1(c1ccc(Br)cc1)O2 (racemic) [114F, Rac-((1R,5S)-8-azabicyclo[3.2.1]octan-8-yl)((4bS,5R,6R,7S,7aR)-7a-(4-bromophenyl)-4b,5-dihydroxy-4-methoxy-7-phenyl-4b,6,7,7a-tetrahydro-5H-cyclopenta[4,5]furo[2,3-c]pyridin-6-yl)methanone] | < 100
